Assay [1] concerns the target T1, hM1 (human Muscarinic receptor subtype 1) (Homo sapiens, UniProt P11229).
T1 construct: expressed in transfected cells; host or cells: CHO cells (chinese hamster ovary cells, ATCC)
T1 sequence (P11229 1-460): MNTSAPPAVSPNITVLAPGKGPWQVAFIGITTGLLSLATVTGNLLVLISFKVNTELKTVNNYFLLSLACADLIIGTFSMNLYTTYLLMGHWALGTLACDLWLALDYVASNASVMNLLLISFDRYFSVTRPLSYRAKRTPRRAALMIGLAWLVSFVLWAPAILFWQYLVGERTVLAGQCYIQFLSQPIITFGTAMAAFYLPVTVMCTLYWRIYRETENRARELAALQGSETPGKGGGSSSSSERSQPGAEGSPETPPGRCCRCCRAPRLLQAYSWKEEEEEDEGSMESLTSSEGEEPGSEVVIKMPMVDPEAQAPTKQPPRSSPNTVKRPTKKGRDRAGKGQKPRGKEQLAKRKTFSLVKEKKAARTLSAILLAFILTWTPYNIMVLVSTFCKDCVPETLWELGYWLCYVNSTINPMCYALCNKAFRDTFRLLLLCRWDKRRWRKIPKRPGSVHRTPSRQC
Nature of the assay: Human M1 calcium mobilization FLIPR assay. Type of assay: cell-based. To be noted: CHO cells expressing hM1, FLIPR; for EC50: read-out: hM1EC50; for Emax: read-out: hM1Emax. The procedure:
The compound activity in the present invention (EC50 or IC50) was measured using a 384 plate-based imaging assay that monitors drug induced intracellular Ca^2+ release in whole cells. Activation of hM1 (human Muscarinic receptor subtype 1, gene bank access NM_000738), rM1 (rat Muscarinic receptor subtype 1, gene bank access NM_080773), hM3 (human Muscarinic receptor subtype 3, gene bank access NM_000740NM_000740) and hM5 (human Muscarinic receptor subtype 5, gene bank access NM_0121258) receptors expressed in CHO cells (chinese hamster ovary cells, ATCC) was quantified in a Molecular Devices FLIPR II™ instrument as an increase in fluorescent signal. Inhibition of hM3 and hM5 by compounds was determined by the decrease in fluorescent signal in response to 2 nM acetylcholine activation.
CHO cells were plated in 384-black polylysine coated plate (Costar) at 8000 cells/well/50 μl for 24 hours or 4000 cells/well for 48 hours in a humidified incubator (5% CO2 and 37° C.) in DMEM/F12 medium without selection agent. Prior to the experiment the cell culture medium was removed from the plates by inversion. A loading solution of 30 μl of Hank's balanced salt solution, 10 mM Hepes and 2.5 mM Probenicid at Ph 7.4 (Cat no. 311-520-VL, Wisent) with 2 μM calcium indicator dye (FLUO-3AM, Molecular Probes F14202) was added to each well. Plates were incubated at 37° C. for 60 minutes prior to start the experiment. The incubation was terminated by washing the cells four times in assay buffer, leaving a residual 25 μl buffer per well. Cell plates were then transferred to the FLIPR, ready for compound additions.
The day of experiment, acetylcholine and compounds were diluted in three-fold concentration range (10 points serial dilution) for addition by FLIPR instrument. For all calcium assays, a baseline reading was taken for 30 seconds followed by the addition of 12.5 μl (25 μl for hM1 and rM1) of compounds, resulting in a total well volume of 37.5 μl (50 μl for hM1 and rM1). Data were collected every 1.6 seconds for 300 seconds. For hM3 and hM5 an additional 12.5 μl of acetylcholine (2 nM final) was added at 300 seconds. After this addition of acetylcholine (producing a final volume of 50 μl), the FLIPR continued to collect data every 2 seconds for 240 seconds. The fluorescence emission was read using filter 1 (emission 520-545 nm) by the FLIPR on board CCD camera.
Calcium mobilization output data were calculated as the maximal relative fluorescence unit (RFU) minus the minimal value for both compound and agonist reading frame (except for hM1 and rM1 using only the maximal RFU). Data were analyzed using sigmoidal fits of a non-linear curve-fitting program (XLfit version 5.0.6 from ID Business Solutions Limited, Guildford, UK). All EC50 and IC50 values are reported as geometric means of ‘n’ independent experiments.

Assay [2] has as its target T2, human M2 receptor (human Muscarinic receptor subtype 2) (Homo sapiens, UniProt P08172).
T2 construct: purchased Perkin-Elmer RBHM2M; host or cells: Chinese hamster ovary cells (CHO), membranes
T2 sequence (P08172 1-466): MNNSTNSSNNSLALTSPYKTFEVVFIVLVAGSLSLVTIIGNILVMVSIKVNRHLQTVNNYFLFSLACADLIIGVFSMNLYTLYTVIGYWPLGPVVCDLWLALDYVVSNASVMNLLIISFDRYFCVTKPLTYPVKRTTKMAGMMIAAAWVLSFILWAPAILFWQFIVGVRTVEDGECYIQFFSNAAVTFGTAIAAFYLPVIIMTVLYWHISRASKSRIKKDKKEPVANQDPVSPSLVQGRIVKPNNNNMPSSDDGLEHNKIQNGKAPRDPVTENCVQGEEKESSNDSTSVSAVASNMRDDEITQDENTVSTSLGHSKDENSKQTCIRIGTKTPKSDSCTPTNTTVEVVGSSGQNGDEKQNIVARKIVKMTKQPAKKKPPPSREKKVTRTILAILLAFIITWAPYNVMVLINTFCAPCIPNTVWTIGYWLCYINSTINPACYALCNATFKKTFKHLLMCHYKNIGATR
The experiment in a line: hM2 receptor GTPγS binding. In kind it is biochemical. To be noted: CHO membranes expressing hM2, GTPγ35S binding; for EC50: read-out: hM2_EC50. The procedure:
hM2 Receptor GTPyS Binding
Membranes produced from Chinese hamster ovary cells (CHO) expressing the cloned human M2 receptor (human Muscarinic receptor subtype 2, gene bank access NM_000739), were obtained from Perkin-Elmer (RBHM2M). The membranes were thawed at 37° C., passed 3 times through a 23-gauge blunt-end needle, diluted in the GTPγS binding buffer (50 mM Hepes, 20 mM NaOH, 100 mM NaCl, 1 mM EDTA, 5 mM MgCl2, pH 7.4, 100 μM DTT). The EC50, IC50 and Emax of the compounds of the invention were evaluated from 10-point dose-response curves (three fold concentration range) done in 60 μl in 384-well non-specific binding surface plate (Corning). Ten microliters from the dose-response curves plate (5× concentration) were transferred to another 384 well plate containing the following: 10 μg of hM2 membranes, 500 μg of Flashblue beads (Perkin-Elmer) and GDP in a 25 μl volume. An additional 15 μl containing 3.3× (55000 dpm) of GTPγ^35S (0.4 nM final) were added to the wells resulting in a total well volume of 50 μl. Basal and maximal stimulated GTPγ^35S binding was determined in absence and presence of 30 μM of acetylcholine agonist. The membranes/beads mix were pre-incubated for 15 minutes at room temperature with 25 μM GDP prior to distribution in plates (12.5 μM final). The reversal of acetylcholine-induced stimulation (2 μM final) of GTPγ^35S binding was used to assay the antagonist properties (IC50) of the compounds. The plates were incubated for 60 minutes at room temperature with shaking, then centrifuged at 2000 rpm for 5 minutes. The radioactivity (cpm) was counted in a Trilux (Perkin-Elmer).
Values of EC50, IC50 and Emax were obtained using sigmoidal fits of a non-linear curve-fitting program (XLfit version 5.0.6 from ID Business Solutions Limited, Guildford, UK) of percent-stimulated GTPγ^35S binding vs. log (molar ligand).
All EC50 and IC50 values are reported as geometric means of ‘n’ independent experiments. […] The IC50 was the concentration of the compound of the invention at which 50% inhibition of acetylcholine GTPγ^35S binding stimulation has been observed.

Regarding `CCOC[C@@H]1CCCN(C[C@H]2CCCC[C@@H]2NC(=O)c2ccc(CN(C(C)=O)C(C)=O)cc2)C1` [4-[(diacetylamino)methyl]-N-((1S,2R)-2-{[(3R)-3-(ethoxymethyl)piperidin-1-yl]methyl}cyclohexyl)benzamide], in assay [1], the EC50 came to 103 nM and the Emax is 91%. In addition, in assay [2], the Emax came out at 18% and the EC50 turned out to be 3300 nM.

In the case of `CCOC[C@@H]1CCCN(C[C@H]2CCCC[C@@H]2NC(=O)c2ccccc2)C1` [N-((1S,2R)-2-{[(3R)-3-(ethoxymethyl)piperidin-1-yl]methyl}cyclohexyl)benzamide], in assay [1], the EC50 was determined as 119 nM and the Emax came out at 74%. Further, in assay [2], the Emax was found to be 34% and the EC50 is 1910 nM.

As for `O=C(N[C@H]1CCCC[C@@H]1CN1CCCCCC1)c1ccc(-n2cccn2)cc1` [N-[(1S,2R)-2-(azepan-1-ylmethyl)cyclohexyl]-4-(1H-pyrazol-1-yl)benzamide], the EC50 in assay [1] was 130 nM; in assay [2] it was over 30000 nM. The results for the Emax in assay [1] and in assay [2] were 70% and over 12%, respectively.

`CCOC[C@@H]1CCCN(C[C@H]2CCCC[C@@H]2NC(=O)c2ccc3c(c2)OCCN3C)C1` [N-((1S,2R)-2-{[(3R)-3-(ethoxymethyl)piperidin-1-yl]methyl}cyclohexyl)-4-methyl-3,4-dihydro-2H-1,4-benzoxazine-7-carboxamide]: the EC50 in assay [1] is 152 nM; in assay [2], over 30000 nM. Further, the figures for the Emax in assay [1] and in assay [2] were 85% and 0%, respectively.

Regarding `C=CCOCC1CCCN(C[C@@H]2CCCC[C@H]2NC(=O)c2ccc(CN3CCN(C)CC3)cc2)C1` (mixture of isomers) [Trans-(±)-N-[2-({3-[(Allyloxy)methyl]piperidin-1-yl}methyl)cyclohexyl]-4-[(4-methylpiperazin-1-yl)methyl]benzamide], in assay [1], the EC50 was determined as 49 nM and the Emax amounted to 80%. Also, in assay [2], the Emax came to 19% and the EC50 is 390 nM.

Regarding `CCOC[C@@H]1CCCN(C[C@H]2CCCC[C@@H]2NC(=O)c2cc3nc(C)cc(C)n3n2)C1` [N-((1S,2R)-2-{[(3R)-3-(ethoxymethyl)piperidin-1-yl]methyl}cyclohexyl)-5,7-dimethylpyrazolo[1,5-a]pyrimidine-2-carboxamid], the EC50 in assay [1] is 22 nM; in assay [2], over 30000 nM. In addition, the values for the Emax in assay [1] and in assay [2] were 82% and 0%, respectively.

Turning to `C=CCOC[C@@H]1CCCN(C[C@H]2CCCC[C@@H]2NC(=O)c2ccc(-n3ccnc3)nc2)C1` [N-[(1S,2R)-2-({(3R)-3-[(allyloxy)methyl]piperidin-1-yl}methyl)cyclohexyl]-6-(1H-imidazol-1-yl)nicotinamide], the values for the EC50 in assay [1] and in assay [2] were 5 nM and 216 nM, respectively. In addition, the values for the Emax in assay [1] and in assay [2] were 95% and 22%, respectively.

As for `CCOC[C@@H]1CCCN(C[C@H]2CCCC[C@@H]2NC(=O)c2ccc(CNS(C)(=O)=O)cc2)C1` [N-((1S,2R)-2-{[(3R)-3-(ethoxymethyl)piperidin-1-yl]methyl}cyclohexyl)-4-{[(methylsulfonyl)amino]methyl}benzamide], the values for the EC50 in assay [1] and in assay [2] were 20 nM and 1340 nM, respectively. Also, the Emax in assay [1] turned out to be 95%; in assay [2], 34%.

These data come from patent US20070259888A1, “Novel Compounds” (ASTRAZENECA AB, priority 2006, published 2007).
